ChEMBL document CHEMBL5030507, “Structure-Based Design of a Selective Class I Histone Deacetylase (HDAC) Near-Infrared (NIR) Probe for Epigenetic Regulation Detection in Triple-Negative Breast Cancer (TNBC)” (J Med Chem, 2021)

Columns and labels:
[1] = target: T1, Protein deacetylase HDAC6 (Homo sapiens, UniProt Q9UBN7); experiment: Inhibition of recombinant human full length N-terminal GST-tagged HDAC6 expressed in Sf9 cells using fluorogenic substrate measured after 60 mins by FRET assay
T1 sequence (Q9UBN7 whole entry): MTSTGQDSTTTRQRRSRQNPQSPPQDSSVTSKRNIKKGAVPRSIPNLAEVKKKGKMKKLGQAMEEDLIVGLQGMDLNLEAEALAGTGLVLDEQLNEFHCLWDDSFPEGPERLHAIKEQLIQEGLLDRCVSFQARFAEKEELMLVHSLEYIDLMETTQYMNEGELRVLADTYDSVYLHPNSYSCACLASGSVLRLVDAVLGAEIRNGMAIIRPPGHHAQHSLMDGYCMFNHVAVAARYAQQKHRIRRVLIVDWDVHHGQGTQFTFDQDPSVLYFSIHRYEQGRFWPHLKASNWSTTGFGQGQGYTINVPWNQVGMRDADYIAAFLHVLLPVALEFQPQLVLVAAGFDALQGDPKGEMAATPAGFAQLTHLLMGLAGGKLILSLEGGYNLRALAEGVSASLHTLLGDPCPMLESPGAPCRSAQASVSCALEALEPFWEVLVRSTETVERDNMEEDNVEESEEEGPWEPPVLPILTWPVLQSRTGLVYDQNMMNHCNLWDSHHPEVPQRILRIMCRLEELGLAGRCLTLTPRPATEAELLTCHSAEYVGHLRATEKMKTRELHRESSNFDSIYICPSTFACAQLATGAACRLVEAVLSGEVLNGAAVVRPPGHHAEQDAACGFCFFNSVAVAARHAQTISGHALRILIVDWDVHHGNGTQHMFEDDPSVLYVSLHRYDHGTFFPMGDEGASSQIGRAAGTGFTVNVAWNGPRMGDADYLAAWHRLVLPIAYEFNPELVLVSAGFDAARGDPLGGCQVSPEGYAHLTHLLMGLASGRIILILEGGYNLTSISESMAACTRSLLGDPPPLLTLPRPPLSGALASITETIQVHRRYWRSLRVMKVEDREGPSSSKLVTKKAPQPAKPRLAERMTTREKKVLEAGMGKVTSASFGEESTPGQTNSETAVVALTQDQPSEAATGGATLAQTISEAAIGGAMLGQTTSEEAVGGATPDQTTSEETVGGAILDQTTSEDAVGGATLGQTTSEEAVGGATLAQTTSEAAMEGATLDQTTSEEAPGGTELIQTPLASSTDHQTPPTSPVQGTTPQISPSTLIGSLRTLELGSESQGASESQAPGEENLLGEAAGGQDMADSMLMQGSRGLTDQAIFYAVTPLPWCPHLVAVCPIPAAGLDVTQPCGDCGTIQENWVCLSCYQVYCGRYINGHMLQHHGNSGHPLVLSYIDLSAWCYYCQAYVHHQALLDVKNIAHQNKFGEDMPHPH

Histone deacetylase 9 = Histone deacetylase 9 (Homo sapiens, UniProt Q9UKV0); experiment: Inhibition of recombinant human C-terminal His-tagged HDAC9 (604 to 1066 residues) expressed in baculovirus infected Sf9 insect cells using fluorogenic substrate measured after 60 mins by FRET assay
Chain of Histone deacetylase 9 (Q9UKV0 whole entry, the tested form may be a part): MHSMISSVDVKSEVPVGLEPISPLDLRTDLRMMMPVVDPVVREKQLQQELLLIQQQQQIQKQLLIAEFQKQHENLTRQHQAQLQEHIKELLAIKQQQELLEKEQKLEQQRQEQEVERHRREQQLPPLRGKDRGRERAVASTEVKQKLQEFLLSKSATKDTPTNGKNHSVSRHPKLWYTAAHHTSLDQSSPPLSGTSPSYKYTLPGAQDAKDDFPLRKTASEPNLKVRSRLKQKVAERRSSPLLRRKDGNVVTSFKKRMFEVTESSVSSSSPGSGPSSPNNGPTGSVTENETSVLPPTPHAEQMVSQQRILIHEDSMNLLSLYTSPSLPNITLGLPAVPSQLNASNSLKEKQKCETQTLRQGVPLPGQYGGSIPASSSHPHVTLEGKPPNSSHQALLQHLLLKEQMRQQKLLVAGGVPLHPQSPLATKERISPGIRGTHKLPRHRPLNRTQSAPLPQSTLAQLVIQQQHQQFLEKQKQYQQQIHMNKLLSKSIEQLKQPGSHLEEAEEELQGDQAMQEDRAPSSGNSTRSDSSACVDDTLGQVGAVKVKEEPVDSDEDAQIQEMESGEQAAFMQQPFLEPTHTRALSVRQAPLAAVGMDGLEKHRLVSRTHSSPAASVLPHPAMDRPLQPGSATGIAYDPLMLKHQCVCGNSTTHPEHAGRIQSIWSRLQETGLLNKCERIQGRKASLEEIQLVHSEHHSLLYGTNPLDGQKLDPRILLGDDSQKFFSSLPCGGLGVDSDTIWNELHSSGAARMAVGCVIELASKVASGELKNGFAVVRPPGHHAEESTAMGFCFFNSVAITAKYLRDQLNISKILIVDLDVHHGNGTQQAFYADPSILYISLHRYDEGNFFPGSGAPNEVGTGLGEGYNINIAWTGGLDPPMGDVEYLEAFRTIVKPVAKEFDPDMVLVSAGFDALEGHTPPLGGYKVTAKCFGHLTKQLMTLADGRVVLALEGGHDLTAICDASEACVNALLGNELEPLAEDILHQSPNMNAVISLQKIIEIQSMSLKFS

Histone deacetylase 11 = target: T2, Histone deacetylase 11 (Homo sapiens, UniProt Q96DB2); experiment: Inhibition of recombinant human full length HDAC11 expressed in baculovirus infected Sf9 cells measured after 60 mins by FRET assay
T2 sequence (Q96DB2 whole entry): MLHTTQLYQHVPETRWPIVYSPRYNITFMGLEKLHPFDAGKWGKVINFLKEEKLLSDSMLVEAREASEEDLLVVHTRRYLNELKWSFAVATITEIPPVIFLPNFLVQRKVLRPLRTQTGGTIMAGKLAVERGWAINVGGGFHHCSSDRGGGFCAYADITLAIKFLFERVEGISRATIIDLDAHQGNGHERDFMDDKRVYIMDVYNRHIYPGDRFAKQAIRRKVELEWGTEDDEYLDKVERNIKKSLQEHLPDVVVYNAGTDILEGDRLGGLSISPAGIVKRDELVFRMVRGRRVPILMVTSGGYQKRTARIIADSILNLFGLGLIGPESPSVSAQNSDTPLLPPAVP

[2] = Selectivity index, ratio of GI50 for cytotoxicity against human WI-38 cells to GI50 for antiproliferative activity against triple-negative human MDA-MB-231 cells; type: toxicity, cell-based; conditions: WI-38 cells versus MDA-MB-231 cells, read-out: RatioGI50
Histone deacetylase 5 = Histone deacetylase 5 (Homo sapiens, UniProt Q9UQL6); experiment: Inhibition of recombinant human full length N-terminal GST-tagged HDAC5 expressed in baculovirus infected Sf9 insect cells using fluorogenic substrate measured after 60 mins by FRET assay
Chain of Histone deacetylase 5 (Q9UQL6 whole entry): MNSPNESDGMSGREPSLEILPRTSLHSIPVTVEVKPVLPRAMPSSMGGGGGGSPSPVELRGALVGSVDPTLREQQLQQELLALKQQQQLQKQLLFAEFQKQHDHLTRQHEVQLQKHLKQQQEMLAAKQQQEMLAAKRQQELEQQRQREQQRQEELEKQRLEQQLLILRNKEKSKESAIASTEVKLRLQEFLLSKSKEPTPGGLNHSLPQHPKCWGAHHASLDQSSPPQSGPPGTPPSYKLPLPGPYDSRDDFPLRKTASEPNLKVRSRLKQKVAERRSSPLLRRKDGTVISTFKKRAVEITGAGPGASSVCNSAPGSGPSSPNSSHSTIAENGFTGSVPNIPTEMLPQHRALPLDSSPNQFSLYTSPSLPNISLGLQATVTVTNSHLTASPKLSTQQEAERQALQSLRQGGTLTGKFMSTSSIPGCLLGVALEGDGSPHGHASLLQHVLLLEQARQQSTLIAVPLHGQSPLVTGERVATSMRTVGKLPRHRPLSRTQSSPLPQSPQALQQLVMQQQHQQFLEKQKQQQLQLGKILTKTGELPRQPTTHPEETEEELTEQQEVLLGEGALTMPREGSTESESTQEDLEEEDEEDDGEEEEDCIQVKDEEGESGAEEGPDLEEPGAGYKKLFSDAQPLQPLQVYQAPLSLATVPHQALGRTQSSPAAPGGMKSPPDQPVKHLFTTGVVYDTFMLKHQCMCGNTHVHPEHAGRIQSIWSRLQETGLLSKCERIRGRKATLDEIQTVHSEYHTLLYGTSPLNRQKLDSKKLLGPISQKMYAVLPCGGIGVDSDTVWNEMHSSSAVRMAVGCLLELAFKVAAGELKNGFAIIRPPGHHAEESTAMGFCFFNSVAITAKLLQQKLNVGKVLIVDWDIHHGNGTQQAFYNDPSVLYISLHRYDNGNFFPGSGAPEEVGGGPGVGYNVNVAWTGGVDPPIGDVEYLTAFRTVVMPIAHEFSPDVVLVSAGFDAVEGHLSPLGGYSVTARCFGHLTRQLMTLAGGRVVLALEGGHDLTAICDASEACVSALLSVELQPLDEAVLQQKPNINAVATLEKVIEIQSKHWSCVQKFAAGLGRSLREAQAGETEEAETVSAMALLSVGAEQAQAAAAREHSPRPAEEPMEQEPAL

Histone deacetylase 7 = target: T3, Histone deacetylase 7 (Homo sapiens, UniProt Q8WUI4); experiment: Inhibition of recombinant human N-terminal GST-tagged HDAC7 expressed in baculovirus infected Sf9 insect cells using fluorogenic substrate measured after 60 mins by FRET assay
T3 sequence (Q8WUI4 whole entry): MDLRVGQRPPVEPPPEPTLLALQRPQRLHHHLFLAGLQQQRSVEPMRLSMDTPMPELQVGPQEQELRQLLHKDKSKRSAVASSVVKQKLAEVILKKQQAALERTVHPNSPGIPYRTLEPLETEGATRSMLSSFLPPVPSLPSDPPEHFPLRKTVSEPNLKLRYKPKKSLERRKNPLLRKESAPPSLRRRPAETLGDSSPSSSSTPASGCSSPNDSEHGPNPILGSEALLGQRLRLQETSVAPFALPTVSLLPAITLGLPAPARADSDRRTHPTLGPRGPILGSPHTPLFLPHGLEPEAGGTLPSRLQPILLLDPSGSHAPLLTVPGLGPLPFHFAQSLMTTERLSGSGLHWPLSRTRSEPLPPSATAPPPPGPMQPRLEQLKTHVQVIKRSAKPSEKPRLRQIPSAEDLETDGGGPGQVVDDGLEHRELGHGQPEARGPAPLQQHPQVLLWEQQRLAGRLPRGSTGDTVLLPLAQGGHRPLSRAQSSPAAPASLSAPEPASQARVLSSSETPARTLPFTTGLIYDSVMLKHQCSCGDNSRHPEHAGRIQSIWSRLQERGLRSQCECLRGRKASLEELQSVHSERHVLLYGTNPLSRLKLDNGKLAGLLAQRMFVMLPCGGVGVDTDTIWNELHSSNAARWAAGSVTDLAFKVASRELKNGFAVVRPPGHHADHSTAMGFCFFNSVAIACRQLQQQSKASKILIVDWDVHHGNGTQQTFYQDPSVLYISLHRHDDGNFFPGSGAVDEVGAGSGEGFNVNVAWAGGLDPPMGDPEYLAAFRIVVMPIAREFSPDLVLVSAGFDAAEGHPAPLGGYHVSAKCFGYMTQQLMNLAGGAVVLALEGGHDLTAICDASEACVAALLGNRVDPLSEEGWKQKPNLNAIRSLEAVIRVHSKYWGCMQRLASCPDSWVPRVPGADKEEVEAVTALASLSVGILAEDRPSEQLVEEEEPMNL

MDA-MB-231 = experiment: Antiproliferative activity against triple-negative human MDA-MB-231 cells assessed as cell growth inhibition incubated for 72 hrs by CCK8 assay; type: functional
Histone deacetylase 2 = Histone deacetylase 2 (Homo sapiens, UniProt Q92769); experiment: biochemical; type: cell-based, Sf9
Chain of Histone deacetylase 2 (Q92769 whole entry): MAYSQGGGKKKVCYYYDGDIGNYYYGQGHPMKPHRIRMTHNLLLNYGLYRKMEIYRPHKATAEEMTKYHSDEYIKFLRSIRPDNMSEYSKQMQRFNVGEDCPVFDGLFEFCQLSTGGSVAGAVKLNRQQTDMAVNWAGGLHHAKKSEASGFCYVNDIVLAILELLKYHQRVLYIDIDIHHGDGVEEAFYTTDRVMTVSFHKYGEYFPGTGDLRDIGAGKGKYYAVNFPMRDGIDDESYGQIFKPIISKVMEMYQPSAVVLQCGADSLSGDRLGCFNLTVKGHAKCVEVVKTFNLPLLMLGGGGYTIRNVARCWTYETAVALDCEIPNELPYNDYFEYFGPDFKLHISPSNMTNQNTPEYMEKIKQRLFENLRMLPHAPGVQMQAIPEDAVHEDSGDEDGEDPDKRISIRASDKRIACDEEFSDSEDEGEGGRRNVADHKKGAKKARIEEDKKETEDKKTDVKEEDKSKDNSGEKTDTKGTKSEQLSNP
Description: Inhibition of recombinant human full length C-terminal His- tagged HDAC2 (1 to 488 residues) expressed in Sf9 insect cells using fluorometric substrate measured after 60 mins by FRET assay

IC50 [1]: > 10 µM
IC50 (Histone deacetylase 9): > 10 µM
IC50 (Histone deacetylase 11): > 10 µM
IC50 (Histone deacetylase 5): > 10 µM
IC50 (Histone deacetylase 7): > 10 µM
GI50 (MDA-MB-231): 0.0119 µM
IC50 (Histone deacetylase 2): 0.0075 µM
Structure (SMILES): C/C=C1\NC(=O)c2csc(n2)CNC(=O)C[C@@H](/C=C/CCSSCCCCCCC)OC(=O)[C@H](CCCCN)NC1=O
selectivity ratio [2]: 194
